According to patent US11891644B2, “T cells with reduced surface fucosylation and methods of making and using the same” (Seagen Inc., priority 2017, dated 2024):

How the values were obtained:
A20 mouse lymphoma cells = experiment: Growth of s.c. implanted A20 lymphoma in Balb/c mice receiving 2FF in drinking water; type: in vivo, mouse (Balb/c); details: 20 mM 2FF in drinking water from day 0; s.c. A20 tumors, 20 days; versus control group (FIG. 2)
Method: 20 Balb/c mice were implanted with A20 cells (0.2 mL of 5×10^6 cells s.c./mouse), one group of mice consisting of 10 animals received 2FF (20 mM in drinking water) from day 0 to termination of study. A20 lymphoma tumors were allowed to grow out and mice sacrificed after 20 days.

CD3+ T cells = experiment: Surface fucosylation of CD3+ T cells isolated from spleens of A20 tumor bearing mice, flow cytometry (surface LCA staining); type: in vivo, mouse (Balb/c); details: T cells from A20 tumor bearing mice treated with 20 mM 2FF in drinking water, LCA staining (FIG. 3)
Method: Mice from the untreated and 2FF treated group were sacrificed and spleens taken for CD3 T-cell enrichment. In brief spleens were collected in RPMI containing 2% FBS and cell suspensions passed through a 70 μm mesh nylon strainer washed with 2% RPMI. Cells were suspended in 10 mls of ACK lysis buffer and incubate for 5 min in this buffer to get rid of RBCs. Cells were centrifuged at 300×g for 5 minutes and re-suspended in PBS containing 2% FBS and 1 mM EDTA. T-cells were isolated using EasySep mouse T cell isolation kit as per the manufactures recommendation. Briefly, cells were re-suspended at 10^8 cells/mL to which 50 μL/mL of rat serum was added. Cells were then transferred into a 5 mL polystyrene tube and 50 μL of isolation cocktail added to the sample followed by room temperature incubation for 10 minutes. Rapid spheres were vortexed and 75 μL/mls added followed by room temperature incubation for 2.5 minutes. Sample volume was topped off to 2.5 mL and incubated with the cell isolation magnet for 2.5 minutes. The magnet was inverted and CD3^+ T cells collected and washed twice in RPMI and resuspended at 21.2×10^6 cells/ml.

A20 cells = experiment: Anti-tumor activity of purified T cells or 2FF in s.c. A20 tumor bearing Balb/c mice; type: in vivo, mouse (Balb/c); details: treatment started at 100 mm^3 tumor; daily 20 mM 2FF in drinking water, or 2×10^6 T cells IP; versus untreated animals or T cells from untreated tumor bearing mice
Method: One group received no treatment, the other three group were treated when the A20 cells reached 100 mm^3 and were treated either with daily 20 mM 2FF in the drinking water, 2×10^6 T-cells isolated from control tumor bearing mice injected IP, or 2×10^6 T-cells isolated from 2FF tumor bearing mice injected IP. Animals were monitored for subsequent tumor progression.

primary human T cells = experiment: Ex-vivo expansion of human peripheral T cells with 2FF, surface fucosylation by flow cytometry (LCA surface staining); type: cell-based; details: 100 μM 2FF, 10 days in culture, CD3/CD28 beads + IL2; LCA surface staining (FIG. 4)
Method: T cells were isolated from 10 mL of whole blood which was centrifuged first at 1200 rpm (300×g) for 10 min (without brakes). The top layer containing platelets was removed carefully without disrupting the white blood cell layer. Then RosetteSep™ Human T-Cell Enrichment Cocktail (Pan T Cells from StemCell technologies) was added to the remaining blood (500 μLAO mL blood). This was incubated for 20 min and then 1 mL FBS was added along with 10 mL PBS. Histopaque (20-25 mL) placed in a 50 mL Falcon the prepared blood/PBS solution was overlaid very slowly. This was centrifuged with no brake (25° C., 1500 rpm, 25 min). The top layer was removed and the T cells in the buffy coat layer were then removed to a new 50 mL tube. […]
For in vitro culturing of primary human T cell culture, isolated T cells were re-suspended in T cell media (RPMI media supplemented with 10% Fetal calf serum (FCS), 1% Penicillin and moved into two T25 flasks, one with or and one without 100 μM 2-deoxy-2-fluoro-L-fucose. CD3/CD28 antibody coated beads (20 μL/flask) were added to activate the T cells. After 24 hr interleukin 2 (IL2) was added (100 ng/μL). Each time the cells were passaged new IL2 and 2-deoxy-2-fluoro-L-fucose were added. After 10 days in culture, expanded T cells cultured in 2FF were assessed for changes in surface fucosylation by flow cytometry (FIG. 4).

With `C[C@H](O)[C@@H](O)[C@@H](O)[C@H](F)C=O` [2FF, 2-deoxy-2-fluoro-L-fucose] the tumor progression (A20 mouse lymphoma cells) was “significant delay in tumor progression”, the “surface fucosylation of isolated CD3+ T cells” value (CD3+ T cells) was “significant reduction in surface fucosylation” and the tumor growth (A20 cells) was “significantly delayed tumor growth and in some cases tumor regression”. For the same compound, the “decrease in surface fucosylation” value (primary human T cells) was “about 85%”.
